Experimental data as given in US12637428B2, “Isoquinoline derivatives as SIK2 inhibitors” (Cancer Research Technology Limited, priority 2019, dated 2026).
pKi: −log10 of the molar value.

Biological target: T1, SIK2 (Homo sapiens, UniProt Q9H0K1)
T1 construct: purchased Life Technologies
Experiment: SIK2 kinase assay, IMAP fluorescence polarization
Format: biochemical
Settings: 50 or 100 μM ATP, average
Description: SIK2, SIK1, SIK3, Abl, Src and EPHA2 Kinase Assays
SIK2, SIK1, SIK3, Abl, Src and EPHA2 assays were performed using an IMAP fluorescence polarization assay format (Molecular Devices Inc.). 0.6-13 nM of each kinase (Life Technologies) was incubated for 60 min at room temperature with 100 nM of either FAM-Abltide, FAM-Srctide or FAM-HDAC protein derived peptide (synthesized by Alta Biosciences, Birmingham UK). Assays were carried out in the presence of 50 or 100 μM ATP in either 20 mM Tris buffer (pH 7.2) containing 4 mM MgCl2, 0.2% BSA and 2 mM DTT (SIK2, SIK1, SIK3, Abl, Src); or 20 mM Tris buffer (pH 8.5) containing 20 mM MgCl2, 0.5% BSA, 0.2% Triton and 5 mM DTT (EPHA2). Typically, dose response analyses were performed over concentration ranges from 0.00005-1 μM. Reactions were stopped by adding 2 assay volumes of 0.25% (v/v) IMAP binding reagent in either an 85:15 ratio (SIK2, SIK1, SIK3, Abl, EPHA2) or 30:70 ratio (Src) of IMAP binding buffers A and B (Molecular Devices). After incubation to allow the detection reagents to bind to the phosphorylated peptide, fluorescence polarization was measured on a Tecan Infinite plate reader at excitation (470 nm) and emission (530 nm) wavelengths. Inhibition was calculated using no inhibitor and no enzyme controls as 0 and 100% inhibition, respectively.
Table 3 provides details of the inhibitory constant (nM) of compounds of the invention at SIK1, SIK2 and SIK3 and other kinases.

T1 sequence (Q9H0K1 whole entry): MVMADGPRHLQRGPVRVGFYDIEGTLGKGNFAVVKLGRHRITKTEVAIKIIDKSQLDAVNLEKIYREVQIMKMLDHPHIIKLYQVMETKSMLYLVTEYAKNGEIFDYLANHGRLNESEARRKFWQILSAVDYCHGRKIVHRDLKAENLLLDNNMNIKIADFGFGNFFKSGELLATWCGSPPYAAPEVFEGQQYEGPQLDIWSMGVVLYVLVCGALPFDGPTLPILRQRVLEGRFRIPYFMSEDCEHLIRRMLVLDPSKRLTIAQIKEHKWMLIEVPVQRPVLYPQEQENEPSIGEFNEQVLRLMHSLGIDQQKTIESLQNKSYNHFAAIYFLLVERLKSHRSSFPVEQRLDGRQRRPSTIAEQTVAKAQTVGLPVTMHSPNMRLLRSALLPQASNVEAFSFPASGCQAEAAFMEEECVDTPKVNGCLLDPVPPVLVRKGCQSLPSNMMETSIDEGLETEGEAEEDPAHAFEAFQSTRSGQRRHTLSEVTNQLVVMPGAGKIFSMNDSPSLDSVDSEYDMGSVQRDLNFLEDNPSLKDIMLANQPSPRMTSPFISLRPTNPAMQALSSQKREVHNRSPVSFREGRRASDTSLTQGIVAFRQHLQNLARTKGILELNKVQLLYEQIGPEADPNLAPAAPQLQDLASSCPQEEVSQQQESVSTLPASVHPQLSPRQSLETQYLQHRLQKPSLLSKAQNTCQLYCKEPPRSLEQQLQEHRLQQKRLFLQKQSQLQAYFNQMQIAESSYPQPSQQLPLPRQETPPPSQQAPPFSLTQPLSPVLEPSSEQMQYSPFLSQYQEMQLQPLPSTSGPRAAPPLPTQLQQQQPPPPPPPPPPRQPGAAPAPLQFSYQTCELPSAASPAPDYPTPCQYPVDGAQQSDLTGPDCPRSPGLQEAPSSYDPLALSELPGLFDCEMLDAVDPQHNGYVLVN

**Q.** With `Cc1cccc(F)c1-c1ccc2c(C(=O)NCC3CCN(C)CC3)c(N)ncc2c1` [Example 91, 3-amino-7-(2-fluoro-6-methyl-phenyl)-N-[(1-methyl-4-piperidyl)methyl] isoquinoline-4-carboxamide] as the compound, how does the pKi read?
**A.** 7.32

**Q.** `Cc1cccc(F)c1-c1ccc2c(C(=O)NCC3CN(C)C3)c(N)ncc2c1` [Example 90, 3-amino-7-(2-fluoro-6-methyl-phenyl)-N-[(1-methylazetidin-3-yl)methyl]isoquinoline-4-carboxamide] was tested. Which pKi did it give?
**A.** 7.49

**Q.** With `Cc1cccc(F)c1-c1ccc2c(C(=O)N[C@H]3CCN(C)C3)c(N)ncc2c1` [Example 93, 3-amino-7-(2-fluoro-6-methyl-phenyl)-N-[(3S)-1-methylpyrrolidin-3-yl]isoquinoline-4-carboxamide] as the compound, how does the pKi read?
**A.** 7.57

**Q.** How did the pKi turn out when `Cc1cccc(Cl)c1-c1ccc2c(C(=O)NCC3CN(C)C3)c(N)ncc2c1` [Example 95, 3-amino-7-(2-chloro-6-methyl-phenyl)-N-[(1-methylazetidin-3-yl)methyl]isoquinoline-4-carboxamide] was run?
**A.** 7.50

**Q.** With `Cc1cccc(F)c1-c1ccc2c(C(=O)N[C@@H]3CCNC3)c(N)ncc2c1` [Example 36, 3-amino-7-(2-fluoro-6-methyl-phenyl)-N-[(3R)-pyrrolidin-3-yl]isoquinoline-4-carboxamide] as the compound, how does the pKi read?
**A.** 7.74

**Q.** With `Cc1cccc(F)c1-c1cc(NC2CCCCC2)c2cc(N)ncc2c1` [Example 111, N5-cyclohexyl-7-(2-fluoro-6-methyl-phenyl)isoquinoline-3,5-diamine] as the compound, how does the pKi read?
**A.** 7.08

**Q.** How did the pKi turn out when `Cc1cccc(F)c1-c1ccc2c(C(=O)NCC3CNC3)c(N)ncc2c1` [Example 33, 3-amino-N-(azetidin-3-ylmethyl)-7-(2-fluoro-6-methyl-phenyl)isoquinoline-4-carboxamide] was run?
**A.** 7.93

**Q.** With `Cc1cccc(Cl)c1-c1ccc2c(C(=O)NCC3CCN(C)CC3)c(N)ncc2c1` [Example 96, 3-amino-7-(2-chloro-6-methyl-phenyl)-N-[(1-methyl-4-piperidyl)methyl] isoquinoline-4-carboxamide] as the compound, how does the pKi read?
**A.** 7.26

**Q.** `Nc1cc2c(NC3CCNCC3)cc(-c3c(F)cccc3Cl)cc2cn1` [Example 20, 7-(2-chloro-6-fluoro-phenyl)-N5-(4-piperidyl)isoquinoline-3,5-diamine] was tested. Which pKi did it give?
**A.** 7.58

**Q.** How did the pKi turn out when `Cc1cccc(Cl)c1-c1ccc2c(C(=O)NCC3CNC3)c(N)ncc2c1` [Example 39, 3-amino-N-(azetidin-3-ylmethyl)-7-(2-chloro-6-methyl-phenyl)isoquinoline-4-carboxamide] was run?
**A.** 7.71

**Q.** How did the pKi turn out when `Cc1cccc(Cl)c1-c1ccc2c(C(=O)NC3CN(C)C3)c(N)ncc2c1` [Example 94, 3-amino-7-(2-chloro-6-methyl-phenyl)-N-(1-methylazetidin-3-yl)isoquinoline-4-carboxamide] was run?
**A.** 7.84

**Q.** With `Cc1cccc(F)c1-c1ccc2c(C(=O)N[C@H]3CCNC3)c(N)ncc2c1` [Example 37, 3-amino-7-(2-fluoro-6-methyl-phenyl)-N-[(3S)-pyrrolidin-3-yl]isoquinoline-4-carboxamide] as the compound, how does the pKi read?
**A.** 8.11

**Q.** `Cc1cccc(Cl)c1-c1ccc2c(C(=O)NCC3CCNCC3)c(N)ncc2c1` [Example 40, 3-amino-7-(2-chloro-6-methyl-phenyl)-N-(4-piperidylmethyl)isoquinoline-4-carboxamide] was tested. Which pKi did it give?
**A.** 7.40

**Q.** With `Cc1cccc(Cl)c1-c1ccc2c(C(=O)N[C@@H]3CCN(C)C3)c(N)ncc2c1` [Example 97, 3-amino-7-(2-chloro-6-methyl-phenyl)-N-[(3R)-1-methylpyrrolidin-3-yl]isoquinoline-4-carboxamide] as the compound, how does the pKi read?
**A.** 7.89

**Q.** `Cc1cccc(F)c1-c1ccc2c(C(=O)NCC3CCNCC3)c(N)ncc2c1` [Example 34, 3-amino-7-(2-fluoro-6-methyl-phenyl)-N-(4-piperidylmethyl)isoquinoline-4-carboxamide] was tested. Which pKi did it give?
**A.** 7.38

**Q.** `Cc1cccc(F)c1-c1ccc2c(C(=O)N[C@@H]3CCN(C)C3)c(N)ncc2c1` [Example 92, 3-amino-7-(2-fluoro-6-methyl-phenyl)-N-[(3R)-1-methylpyrrolidin-3-yl]isoquinoline-4-carboxamide] was tested. Which pKi did it give?
**A.** 7.77
